Laboratory results published in patent US8981047B2 (Indiana University Research and Technology Corporation, priority 2007, dated 2015).
Values belong to the compound of their own block, whether it stands above or below them. Square brackets hold non-standard residues; d marks the D form. Peptide text beside a SMILES is read from it. Abu(4-SO3H) = N[C@@H](CCS(=O)(=O)O)C(=O)O; PhLac = O=C(O)[C@@H](O)Cc1ccccc1

What was measured:
GLP-1 receptor = GLP-1 receptor (Homo sapiens, UniProt P43220); assay: cAMP induction, firefly luciferase reporter assay in HEK293 cells; format: cell-based; details: Table 13; cells expressing the human GLP-1 receptor
glucagon receptor [1] = biological target: T1, glucagon receptor (Homo sapiens, UniProt P47871); assay: cAMP inhibition (antagonism of glucagon-induced cAMP production); format: cell-based; parameters: expressed in transfected cells; host or cells: HEK293; details: Tables 5-12 and FIGS. 4, 5, 7, 8
glucagon receptor [2] = biological target: T1, glucagon receptor; assay: cAMP induction, firefly luciferase reporter assay in HEK293 cells; format: cell-based; parameters: expressed in transfected cells; host or cells: HEK293; details: read-out: cAMP Induction Glucagon Receptor EC50; Table 2
glucagon receptor [3] = biological target: T1, glucagon receptor; assay: Glucagon receptor binding assay (scintillation proximity competition with 125I-glucagon); details: 6-29 shortened glucagon amide backbone

T1 sequence (P47871 26-477): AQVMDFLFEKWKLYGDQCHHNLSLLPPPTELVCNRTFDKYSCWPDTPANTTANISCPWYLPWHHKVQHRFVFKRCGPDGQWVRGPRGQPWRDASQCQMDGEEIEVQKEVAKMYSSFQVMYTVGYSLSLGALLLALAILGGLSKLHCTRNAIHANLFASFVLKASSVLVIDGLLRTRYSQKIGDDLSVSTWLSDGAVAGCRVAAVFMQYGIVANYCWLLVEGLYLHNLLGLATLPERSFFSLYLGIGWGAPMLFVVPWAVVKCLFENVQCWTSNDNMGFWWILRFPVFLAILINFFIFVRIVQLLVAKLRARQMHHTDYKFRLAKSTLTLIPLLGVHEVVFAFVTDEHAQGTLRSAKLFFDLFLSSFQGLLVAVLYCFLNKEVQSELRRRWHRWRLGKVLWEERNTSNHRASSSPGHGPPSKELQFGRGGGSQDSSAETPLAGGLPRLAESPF
Sequence of GLP-1 receptor (P43220 24-463): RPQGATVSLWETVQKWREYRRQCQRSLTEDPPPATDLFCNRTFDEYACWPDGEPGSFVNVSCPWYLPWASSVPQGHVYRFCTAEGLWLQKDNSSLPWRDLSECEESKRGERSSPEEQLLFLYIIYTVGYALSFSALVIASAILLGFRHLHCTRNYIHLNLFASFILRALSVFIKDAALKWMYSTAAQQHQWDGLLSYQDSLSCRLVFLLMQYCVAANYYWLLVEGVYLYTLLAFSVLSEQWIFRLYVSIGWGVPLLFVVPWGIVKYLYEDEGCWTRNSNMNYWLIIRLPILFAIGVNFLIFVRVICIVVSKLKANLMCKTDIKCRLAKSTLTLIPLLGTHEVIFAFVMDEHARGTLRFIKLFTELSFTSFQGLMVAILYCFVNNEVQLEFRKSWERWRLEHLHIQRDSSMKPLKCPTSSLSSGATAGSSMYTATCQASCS

Compound: CSCC[C@H](NC(=O)[C@H](CC(C)C)NC(=O)[C@H](Cc1c[nH]c2ccccc12)NC(=O)[C@H](CCC(N)=O)NC(=O)[C@@H](NC(=O)[C@H](Cc1ccccc1)NC(=O)[C@H](CC(=O)O)NC(=O)[C@H](CCC(N)=O)NC(=O)[C@H](C)NC(=O)[C@H](CCCNC(=N)N)NC(=O)[C@H](CCCNC(=N)N)NC(=O)[C@H](CO)NC(=O)[C@H](CC(=O)O)NC(=O)[C@H](CC(C)C)NC(=O)[C@H](Cc1ccc(O)cc1)NC(=O)[C@H](CCCCN)NC(=O)[C@H](CO)NC(=O)[C@H](Cc1ccc(O)cc1)NC(=O)[C@H](CCC(=O)O)NC(=O)[C@H](CO)NC(=O)[C@@H](NC(=O)[C@@H](O)Cc1ccccc1)[C@@H](C)O)C(C)C)C(=O)N[C@@H](CC(N)=O)C(=O)N[C@H](C(N)=O)[C@@H](C)O [[PLA6, E9]Glucagon(aa6-29)-NH2] (H-[PhLac]TSEYSKYLDSRRAQDFVQWLMNT-NH2)
GLP-1 agonism EC50 (GLP-1 receptor): No agonism

Compound: Oxyntomodulin C24 PEG 20 K
EC50 (glucagon receptor [2]): 0.97 ± 0.04 nM

Compound: PLA6 analog: native glucagon with first 5 residues deleted and N-terminal amino group of Phe replaced with hydroxyl (phenyl-lactic acid); SEQ ID NO: 39
increase of affinity for the glucagon receptor relative to the native Phe6 analog (glucagon receptor [3]): threefold

Further lines, with some results ahead:

glucagon antagonism in the cAMP bioassay, result in words (glucagon receptor [1]): some level of antagonism
Compound: CC(C)C[C@H](NC(=O)[C@H](Cc1ccc(O)cc1)NC(=O)[C@H](CCCCN)NC(=O)[C@H](CO)NC(=O)[C@H](Cc1ccc(O)cc1)NC(=O)[C@H](CCS(=O)(=O)O)NC(=O)[C@H](CO)NC(=O)[C@@H](NC(=O)[C@H](Cc1ccccc1)NC(=O)[C@@H](NC(=O)[C@H](CC(C)C)NC(=O)[C@H](CCC(N)=O)NC(=O)[C@@H](N)CO)[C@@H](C)O)[C@@H](C)O)C(=O)N[C@@H](CC(=O)O)C(=O)N[C@@H](CO)C(=O)N[C@@H](CCCNC(=N)N)C(=O)N[C@@H](CCCNC(=N)N)C(=O)N[C@@H](C)C(=O)N[C@@H](CCC(N)=O)C(=O)N[C@@H](CC(=O)O)C(=O)N[C@@H](Cc1ccccc1)C(=O)N[C@H](C(=O)N[C@@H](CCC(N)=O)C(=O)N[C@@H](Cc1ccccc1)C(=O)N[C@@H](CC(C)C)C(=O)N[C@@H](CC(C)C)C(=O)N[C@@H](CC(N)=O)C(=O)N[C@H](C(N)=O)[C@@H](C)O)C(C)C [[desHis^1, Leu^4, hCys^9(SO3-), Phe^25, Leu^27] Glucagon-NH2] (H-SQLTFTS[Abu(4-SO3H)]YSKYLDSRRAQDFVQFLLNT-NH2; N-terminus assumed)

glucagon antagonism in the cAMP bioassay, result in words (glucagon receptor [1]): some level of antagonism
Compound: CC(C)C[C@H](NC(=O)[C@H](Cc1ccc(O)cc1)NC(=O)[C@H](CCCCN)NC(=O)[C@H](CO)NC(=O)[C@H](Cc1ccc(O)cc1)NC(=O)[C@H](CCS(=O)(=O)O)NC(=O)[C@H](CO)NC(=O)[C@@H](NC(=O)[C@@H](NC(=O)CNC(=O)[C@H](CCC(N)=O)NC(=O)[C@@H](N)CO)[C@@H](C)O)[C@@H](C)O)C(=O)N[C@@H](CC(=O)O)C(=O)N[C@@H](CO)C(=O)N[C@@H](CCCNC(=N)N)C(=O)N[C@@H](CCCNC(=N)N)C(=O)N[C@@H](C)C(=O)N[C@@H](CCC(N)=O)C(=O)N[C@@H](CC(=O)O)C(=O)N[C@@H](Cc1ccccc1)C(=O)N[C@H](C(=O)N[C@@H](CCC(N)=O)C(=O)N[C@@H](Cc1ccccc1)C(=O)N[C@@H](CC(C)C)C(=O)N[C@@H](CC(C)C)C(=O)N[C@@H](CC(N)=O)C(=O)N[C@H](C(N)=O)[C@@H](C)O)C(C)C [[desHis^1, desPhe^6, hCys^9(SO3-), Phe^25, Leu^27] Glucagon-NH2] (H-SQGTTS[Abu(4-SO3H)]YSKYLDSRRAQDFVQFLLNT-NH2; N-terminus assumed)

glucagon antagonism in the cAMP bioassay, result in words (glucagon receptor [1]): full antagonists
Compound: CSCC[C@H](NC(=O)[C@H](CC(C)C)NC(=O)[C@H](Cc1c[nH]c2ccccc12)NC(=O)[C@H](CCC(N)=O)NC(=O)[C@@H](NC(=O)[C@H](Cc1ccccc1)NC(=O)[C@H](CC(=O)O)NC(=O)[C@H](CCC(N)=O)NC(=O)[C@H](C)NC(=O)[C@H](CCCNC(=N)N)NC(=O)[C@H](CCCNC(=N)N)NC(=O)[C@H](CO)NC(=O)[C@H](CC(=O)O)NC(=O)[C@H](CC(C)C)NC(=O)[C@H](Cc1ccc(O)cc1)NC(=O)[C@H](CCCCN)NC(=O)[C@H](CO)NC(=O)[C@H](Cc1ccc(O)cc1)NC(=O)[C@H](CCS(=O)(=O)O)NC(=O)[C@H](CO)NC(=O)[C@@H](NC(=O)[C@H](Cc1ccccc1)NC(=O)[C@@H](NC(=O)CN)[C@@H](C)O)[C@@H](C)O)C(C)C)C(=O)N[C@@H](CC(N)=O)C(=O)N[C@H](C(N)=O)[C@@H](C)O [[hCys^9(SO3H)]Glucagon(aa4-29)-NH2, [hCys(SO3H)9]glucagon (4-29) amide] (H-GTFTS[Abu(4-SO3H)]YSKYLDSRRAQDFVQWLMNT-NH2; N-terminus assumed)

glucagon antagonism in the cAMP bioassay, result in words (glucagon receptor [1]; listed as 5-29 hCys(SO3H)^9): full antagonists
Compound: CSCC[C@H](NC(=O)[C@H](CC(C)C)NC(=O)[C@H](Cc1c[nH]c2ccccc12)NC(=O)[C@H](CCC(N)=O)NC(=O)[C@@H](NC(=O)[C@H](Cc1ccccc1)NC(=O)[C@H](CC(=O)O)NC(=O)[C@H](CCC(N)=O)NC(=O)[C@H](C)NC(=O)[C@H](CCCNC(=N)N)NC(=O)[C@H](CCCNC(=N)N)NC(=O)[C@H](CO)NC(=O)[C@H](CC(=O)O)NC(=O)[C@H](CC(C)C)NC(=O)[C@H](Cc1ccc(O)cc1)NC(=O)[C@H](CCCCN)NC(=O)[C@H](CO)NC(=O)[C@H](Cc1ccc(O)cc1)NC(=O)[C@H](CCS(=O)(=O)O)NC(=O)[C@H](CO)NC(=O)[C@@H](NC(=O)[C@H](Cc1ccccc1)NC(=O)[C@@H](N)[C@@H](C)O)[C@@H](C)O)C(C)C)C(=O)N[C@@H](CC(N)=O)C(=O)N[C@H](C(N)=O)[C@@H](C)O [[hCys^9(SO3H)]Glucagon(aa5-29)-NH2, [hCys(SO3H)9]glucagon (5-29) amide] (H-TFTS[Abu(4-SO3H)]YSKYLDSRRAQDFVQWLMNT-NH2; N-terminus assumed)
glucagon antagonism in the cAMP bioassay, result in words (glucagon receptor [1]; listed as 5-29 hCys9): pure potent antagonism, without any measurable agonist activity
glucagon antagonism in the cAMP bioassay, result in words (glucagon receptor [1]; listed as 5-29 hCys9-based glucagon antagonist): more potent and effective than the literature standards

glucagon antagonism in the cAMP bioassay, result in words (glucagon receptor [1]; listed as 6-29 hCys(SO3H)^9): full antagonists
Compound: CSCC[C@H](NC(=O)[C@H](CC(C)C)NC(=O)[C@H](Cc1c[nH]c2ccccc12)NC(=O)[C@H](CCC(N)=O)NC(=O)[C@@H](NC(=O)[C@H](Cc1ccccc1)NC(=O)[C@H](CC(=O)O)NC(=O)[C@H](CCC(N)=O)NC(=O)[C@H](C)NC(=O)[C@H](CCCNC(=N)N)NC(=O)[C@H](CCCNC(=N)N)NC(=O)[C@H](CO)NC(=O)[C@H](CC(=O)O)NC(=O)[C@H](CC(C)C)NC(=O)[C@H](Cc1ccc(O)cc1)NC(=O)[C@H](CCCCN)NC(=O)[C@H](CO)NC(=O)[C@H](Cc1ccc(O)cc1)NC(=O)[C@H](CCS(=O)(=O)O)NC(=O)[C@H](CO)NC(=O)[C@@H](NC(=O)[C@@H](N)Cc1ccccc1)[C@@H](C)O)C(C)C)C(=O)N[C@@H](CC(N)=O)C(=O)N[C@H](C(N)=O)[C@@H](C)O [[hCys^9(SO3H)]Glucagon(aa6-29)-NH2] (H-FTS[Abu(4-SO3H)]YSKYLDSRRAQDFVQWLMNT-NH2)
glucagon antagonism in the cAMP bioassay, result in words (glucagon receptor [1]; listed as 6-29 hCys9): pure potent antagonism, without any measurable agonist activity
